In patent US20260250318A1, “COMPOSITIONS AND METHODS FOR CROSSING THE BLOOD BRAIN BARRIER” (VOYAGER THERAPEUTICS, INC., priority 2022, published 2026):

What was measured:
[1] = system: brains, heart, liver, muscle, and DRG of the NHPs; assay: Maturation of TTM-001 and TTM-002 capsids, NGS enrichment in NHP tissues; type: in vivo; settings: relative to AAV9 control
In short: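 Variants carry mutations within and flanking the loop IV peptide insert: positions 450–466 were triplet-randomized, while positions 449–466 received low-frequency point mutations. The combined pool went into two NHPs, and each peptide was scored by NGS enrichment ratio against AAV9.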

brain [2] = assay: Matured TTM-001 and TTM-002 variants, NGS enrichment in mouse brain; type: in vivo, mice; settings: mouse brain; relative to AAV9 control
brain [3] = assay: NGS fold enrichment of synthetic library (passage 3) in BALB/c mice, first cross-species screen; type: in vivo; settings: synthetic library passage 3, intravenous, relative to wild-type AAV9
In short: (§1)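 Synthetic capsid library (passage 3) was given intravenously […] to NHPs aged 2-4 years and to BALB/c and C57Bl/6 mice (n=3 each, 6-8 weeks). After about 28 days in vivo, tissue RNA was RT-PCR amplified and NGS-sequenced; values are fold enrichment per variant relative to wild-type AAV9.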

brain [4] = assay: NGS fold enrichment of synthetic library (passage 3) in C57Bl/6 mice, first cross-species screen; type: in vivo; settings: synthetic library passage 3, intravenous, relative to wild-type AAV9
In short: as §1

[5] = system: brain, spinal cord, and DRG of the NHPs; assay: NGS fold enrichment of synthetic library (passage 3) in NHPs, first cross-species screen; type: in vivo, cynomolgus macaques (Macaca fascicularis); settings: synthetic library passage 3, intravenous, relative to wild-type AAV9
In short: as §1

[6] = RNA from brain of BALB/c mice, NGS
[7] = RNA from brain of C57Bl/6 mice, NGS
[8] = RNA from spinal cord of NHPs, NGS

Sequence | Fold enrichment over AAV9 in the brain of Mice (BALB/c) (brain [3]; RNA NGS, brain of BALB/c mice) [fold] | Fold enrichment over AAV9 in the brain of Mice (C57Bl/6) (brain [4]; RNA NGS, brain of C57Bl/6 mice) [fold] | Fold enrichment over AAV9 in the brain of NHPs ([5]; RNA NGS, brain of NHPs) [fold] | Fold enrichment over AAV9 in the spinal cord of NHPs ([5]; RNA NGS, spinal cord of NHPs) [fold] | also measured
EAINGSGSPHSKAQNQQT | – | – | – | – | Fold Enrichment relative to AAV9, Brain (NHP) ([1]; NGS fold-enrichment of matured AAV capsid variants, NHP brain, RNA): 50.243 fold; Fold Enrichment relative to AAV9, DRG (NHP) ([1]; NHP DRG): 0.629 fold; Fold Enrichment relative to AAV9, Heart (NHP) ([1]; NHP heart): 0.094 fold; Fold Enrichment relative to AAV9, Liver DNA (NHP) ([1]; NHP liver, DNA): 1.519 fold; Fold Enrichment relative to AAV9, Liver RNA (NHP) ([1]; NHP liver, RNA): 0.057 fold; Fold Enrichment relative to AAV9, Muscle (NHP) ([1]; NHP muscle): 0.000 fold; Fold Enrichment relative to AAV9, Brain (Mouse) (brain [2]): 117.305 fold
GSTVQDTRGQNQQT | 0.473 | 0.576 | 2.270 | 4.979 | –
GSVFGVPSGQNQQT | 0.213 | 0.685 | 1.474 | 1.248 | –
GSVGSRPVGQNQQT | 0.716 | 1.182 | 1.442 | 11.363 | –
GSVHLSVTGQNQQT | 0.282 | 0.741 | 2.882 | 1.157 | –
GSVHMQNAGQNQQT | 0.625 | 1.004 | 1.034 | 3.608 | –
GSVLHSHAAQNQQT | 0.423 | 0.675 | 4.150 | 6.448 | –
GSVSDVRAGQNQQT | 0.747 | 0.267 | 2.661 | 1.647 | –
GSVSTHSSGQNQQT | 0.918 | 1.198 | 2.145 | 3.446 | –
GSVTHGISGQNQQT | 0.789 | 1.135 | 2.105 | 4.542 | –
GSYGMAASGQNQQT | 0.829 | 1.274 | 3.817 | 10.052 | –
GTASTYNSGQNQQT | 0.625 | 0.250 | 1.099 | 2.560 | –
GTDFGRQSSQNQQT | 0.797 | 1.021 | 2.346 | 3.196 | –
GTEQTRQSGQNQQT | – | – | – | – | Fold enrichment over AAV9 in the brain of Mice (BALB/c) (brain [3]; [6]): 0.756 fold; Fold enrichment over AAV9 in the brain of Mice (C57Bl/6) (brain [4]; [7]): 0.756 fold; Fold enrichment over AAV9 in the brain of NHPs ([5]; RNA from brain of NHPs, NGS): 1.188 fold; Fold enrichment over AAV9 in the spinal cord of NHPs [5, 8]: 0.132 fold
GTHPYTSSGQNQQT | 0.471 | 0.758 | 2.775 | 1.684 | –
GTPTSPSSGQNQQT | 0.662 | 0.833 | 1.086 | 4.558 | –
GTREMPLSGQNQQT | 0.538 | 1.436 | 2.339 | 2.830 | –
GTTAHQPSGQNQQT | – | – | – | – | Fold enrichment over AAV9 in the brain of Mice (BALB/c) (brain [3]; [6]): 0.275 fold; Fold enrichment over AAV9 in the brain of Mice (C57Bl/6) (brain [4]; [7]): 0.726 fold; Fold enrichment over AAV9 in the brain of NHPs ([5]; RNA from brain of NHPs, NGS): 1.138 fold; Fold enrichment over AAV9 in the spinal cord of NHPs [5, 8]: 0.211 fold

Sequence | Fold enrichment over AAV9 in the brain of Mice (BALB/c) (brain [3]; RNA NGS, brain of BALB/c mice) [fold] | Fold enrichment over AAV9 in the brain of Mice (C57Bl/6) (brain [4]; RNA NGS, brain of C57Bl/6 mice) [fold] | Fold enrichment over AAV9 in the brain of NHPs ([5]; RNA NGS, brain of NHPs) [fold] | Fold enrichment over AAV9 in the spinal cord of NHPs ([5]; RNA NGS, spinal cord of NHPs) [fold] | also measured
GVAFIGSSGQNQQT | 0.648 | 0.744 | 1.043 | 0.000 | –
GVAGSLVSGQNQQT | 1.160 | 1.321 | 2.358 | 7.670 | –
GVGVITSSGQNQQT | – | – | – | – | Fold enrichment over AAV9 in the brain of Mice (BALB/c) (brain [3]; [6]): 0.777 fold; Fold enrichment over AAV9 in the brain of Mice (C57Bl/6) (brain [4]; [7]): 1.296 fold; Fold enrichment over AAV9 in the brain of NHPs ([5]; RNA from brain of NHPs, NGS): 1.348 fold; Fold enrichment over AAV9 in the spinal cord of NHPs [5, 8]: 0.918 fold
GVHDMRVSGQNQQT | 0.818 | 1.171 | 1.032 | 8.083 | –
GVHSLTPSGQNQQT | 0.215 | 0.475 | 1.687 | 4.104 | –
GVHTHLPSGQNQQT | 0.796 | 1.414 | 1.952 | 1.364 | –
GVIVLHGSGQNQQT | 1.098 | 1.074 | 1.682 | 14.166 | –
GVKGVGHSGQNQQT | 0.783 | 0.994 | 1.096 | 2.485 | –
GVSRGGPSGQNQQT | 0.591 | 0.750 | 1.028 | 1.611 | –
GVVAAHNSGQNQQT | 1.336 | 1.196 | 2.202 | 1.301 | –
GVVAHQPSGQNQQT | 2.267 | 0.910 | 2.103 | 0.152 | –
GVVHITNSGQNQQT | 0.846 | 0.794 | 1.969 | 0.504 | –
GVVRNHQSGQNQQT | 0.868 | 0.899 | 1.116 | 5.801 | –
GWERSFVSGQNQQT | 0.538 | 0.490 | 1.492 | 0.943 | –
GYEVLGSSGQNQQT | 0.319 | 2.459 | 2.891 | 0.000 | –
GYFVAAWSGQNQQT | 0.175 | 0.071 | 4.488 | 0.000 | –
GYTRLETSGQNQQT | – | – | – | – | Fold enrichment over AAV9 in the brain of Mice (BALB/c) (brain [3]; [6]): 0.297 fold; Fold enrichment over AAV9 in the brain of Mice (C57Bl/6) (brain [4]; [7]): 0.841 fold; Fold enrichment over AAV9 in the brain of NHPs ([5]; RNA from brain of NHPs, NGS): 1.250 fold; Fold enrichment over AAV9 in the spinal cord of NHPs [5, 8]: 1.323 fold
